Assay results from BigSolDB 2.1.

c1ccc2ccccc2c1
Conditions | solubility (mole fraction)
in DMF, 278.05 K | 0.162
in DMF, 283.05 K | 0.185
in DMF, 288.15 K | 0.215
in DMF, 292.75 K | 0.244
in DMF, 298.05 K | 0.281
in DMF, 303.25 K | 0.307
in DMF, 307.95 K | 0.354
in DMF, 313.15 K | 0.406
in DMF, 318.15 K | 0.465
in NMP, 278.18 K | 0.269
in NMP, 283.25 K | 0.289
in NMP, 288.17 K | 0.307
in NMP, 293.2 K | 0.336
in NMP, 298.16 K | 0.379
in NMP, 303.21 K | 0.41
in NMP, 308.17 K | 0.438
in NMP, 313.16 K | 0.486
in NMP, 318.21 K | 0.535
in NMP, 323.27 K | 0.577
in THF, 278.6 K | 0.241
in THF, 284.35 K | 0.273
in THF, 288.25 K | 0.292
in THF, 293.25 K | 0.324
in THF, 298 K | 0.352
in THF, 303.2 K | 0.385
in THF, 308.19 K | 0.428
in THF, 313.25 K | 0.469
in THF, 318.35 K | 0.51
in THF, 323.2 K | 0.566
in THF, 328.21 K | 0.6
in THF, 333.22 K | 0.629
in acetone, 278.15 K | 0.124
in acetone, 283.15 K | 0.143
in acetone, 288.05 K | 0.171
in acetone, 293.25 K | 0.194
in acetone, 298.35 K | 0.226
in acetone, 303 K | 0.268
in acetone, 308.1 K | 0.307
in acetone, 313.05 K | 0.361
in acetone, 318.15 K | 0.417
in acetone, 323.05 K | 0.477
in ethyl acetate, 278.2 K | 0.174
in ethyl acetate, 283.17 K | 0.191
in ethyl acetate, 288.21 K | 0.217
in ethyl acetate, 293.19 K | 0.233
in ethyl acetate, 298.25 K | 0.276
in ethyl acetate, 303.2 K | 0.314
in ethyl acetate, 308.21 K | 0.357
in ethyl acetate, 313.23 K | 0.406
in ethyl acetate, 318.17 K | 0.465
in ethyl acetate, 323.21 K | 0.526
in isobutyl acetate, 278.18 K | 0.183
in isobutyl acetate, 283.2 K | 0.205
in isobutyl acetate, 288.22 K | 0.232
in isobutyl acetate, 293.23 K | 0.259
in isobutyl acetate, 298.19 K | 0.299
in isobutyl acetate, 303.23 K | 0.335
in isobutyl acetate, 308.45 K | 0.387
in isobutyl acetate, 313.2 K | 0.433
in isobutyl acetate, 318.17 K | 0.483
in isobutyl acetate, 323.21 K | 0.539
in n-butyric acid, 278.17 K | 0.0834
in n-butyric acid, 283.27 K | 0.0952
in n-butyric acid, 288.45 K | 0.113
in n-butyric acid, 293.2 K | 0.129
in n-butyric acid, 298.26 K | 0.154
in n-butyric acid, 303.22 K | 0.179
in n-butyric acid, 308.2 K | 0.215
in n-butyric acid, 313.3 K | 0.253
in n-butyric acid, 318.19 K | 0.292
in n-butyric acid, 323.28 K | 0.34
